Measured values as given in patent US20110243957A1, “MATERIALS AND METHODS FOR PREVENTING OR TREATING NEURODEGENERATIVE CONDITIONS ASSOCIATED WITH ABETA PEPTIDE ACCUMULATION” (University of South Florida, priority 2008, published 2011).
“Also recorded” adds a separate entry of the source. Read-outs that look alike come from different tables or passages of the source.

Columns and labels:
ppErk1/2 = test: ppERK levels in cortex of mice, Western blot; assay type: in vivo
Description: FIGS. 4A-4C. […] After this time mice were sacrificed and the levels of pcRaf-1[Ser338] and pERK1/2 were analyzed by Western blot as described in Experimental Procedures. […] (n=5) (FIG. 4B) in the cortex than untreated Tg mice (n=4). The differences were significant for ppERKs, *P=0.016 and pcRaf-1[Ser338], *P=0.018. (FIG. 4C) Phosphorylation of cRaf-1 at Ser 259 and Ser 338. […] NT, wild-type age-matched control littermates.
(§1) Western blotting. […] (1:100) (GenScript Corporation, NJ, USA).

pcRaf-1[Ser338] = pcRaf-1[Ser338] levels in cortex of mice, Western blot; assay type: in vivo; conditions: wild type NT mice
pNF-κB[Ser276] = pNF-κB[Ser276] levels in cortex of mice, Western blot; assay type: in vivo; conditions: for levels of pNF-κB[Ser276] vs control Tg mice: cortex, 20 mg/kg/day, four months
Description: (§2) FIGS. 5A-5E. […] NT, wild type age-matched control littermates.
as §1

Cox-2 = Cox-2 levels in cortex of mice, Western blot; assay type: in vivo; conditions: for levels of Cox-2 vs control Tg mice: cortex, 20 mg/kg/day, four months
iNOS = iNOS levels in cortex of mice, Western blot; assay type: in vivo
Description: as §2, §1

Aβ40 = test: Total Aβ40 levels in cortex, ELISA; assay type: in vivo; conditions: Tg mice, Study 2 (4 mo. treatment), ns vs Tg
Aβ42 = test: Total Aβ42 levels in cortex, ELISA; assay type: in vivo; conditions: Tg mice, ns vs Tg
Description: Determination of Aβ levels. The levels of Aβ1-40 and Aβ1-42 were quantified in the brain tissues by ELISA.
Total Aβ levels. Brain tissues were prepared by sonication of the samples in 5 M guanidine HCl, and 50 mM Tris-HCl. pH 8.0. After sonication, samples were incubated for 3 h at room temperature and centrifuged at 16,000×g for 20 min at 4° C. The supernatants were stored at −80° C. For analysis, the supernatants were diluted using PBS with 5% BSA and 0.03% Tween-20 supplemented with 1× protease inhibitor cocktail (Roche, USA) and further used to determine total Aβ levels using a commercial ELISA kit (Invitrogen, Carlsbad, Calif., USA), according to the manufacturer's recommendations.
Aβ levels represent the concentration of amyloid peptides in the cortex (A, C) and hippocampus (B, D) of the mice expressed as picogram by milligram (pg/mg) of brain tissue. Total peptide levels correspond to the levels found in the supernatant of cortical tissues homogenized in 5 M guanidinium chloride. Soluble Aβ levels correspond to the levels found in the supernatant of hippocampal tissues of the mice homogenized in the Triton-soluble fractions. ns, Not significant (P>0.05).

p-CREB[Ser 133] = test: CREB phosphorylated at Ser 133 in cortex, Western blot; assay type: in vivo; conditions: Tg mice, four months treatment, vs control Tg mice
Description: as §1

APPswe (Tg) and NT mice [1] = assay type: in vivo; conditions: during treatment (20 mg/kg/day)
Description: RAWM. For the RAWM task of spatial working memory (Arendash et al. (2001b); Arendash et al. (2007); Ethell et al. (2006)), an aluminum insert was placed into a 100 cm circular pool to create six radially distributed swim arms emanating from a central circular swim area (Arendash et al. (2001a); Ethell et al. (2006)). An assortment of 2-D and 3-D visual cues surrounded the pool. The number of errors prior to locating which one of the six swim arms contained a submerged escape platform (9 cm diameter) was determined in each of five trials every day. There was a 20-min time delay between the 4th trial (T4; final acquisition trial) and 5th trial (T5; memory retention trial). […] During each trial (60 s maximum), the mouse was returned to that trial's start arm upon swimming into an incorrect arm and the number of seconds required to locate the submerged platform was recorded. […]
For statistical analysis of RAWM data, the 8 days of pre-treatment testing (four 2-day blocks) or the 9 days of during-treatment testing (three 3-day blocks) were evaluated for individual blocks, as well as over all blocks, using one-way ANOVAs. […] One-way ANOVAs were employed for each of the four behavioral measures analyzed, followed by post hoc Fisher's LSD test to determine group differences. […]

APPswe (Tg) and NT mice [2] = test: Cognitive interference task of working memory; assay type: in vivo
Description: Interference test details. Cognitive Interference Task. This task involves two radial arm water maze set-ups in two different rooms, and different sets of visual cues. The task requires animals to remember a set of visual cues, so that following interference with a different set of cues, the initial set of cues can be recalled to successfully solve the radial arm water maze task. A set of […] behavioral measures were examined. Behavioral measures are: A1-A3 (Composite three-trial recall score from first 3 trials performed in RAWM “A”), “B” (proactive interference measure attained from a single trial in RAWM “B”), A4 (retroactive interference measure attained during a single trial in RAWM “A”), and “A5” (delayed-recall measure attained from a single trial in RAWM “A” following a 20 min delay between A4 and A5). As with the standard RAWM task, this interference task involves the platform location being changed daily to a different arm for both of the RAWM set-ups utilized, and different start arms for each day of testing for both RAWM set-ups. For A1 and B trials, the animal is initially allowed one minute to find the platform on their own before they are guided to the platform. Then the actual trial is performed in each case. As with the standard RAWM task, animals were given 60-s to find the escape platform, with the number of errors and escape latency recorded for each trial.
Cognitive interference task. This task involves two RAWM setups in two different rooms, and three different sets of visual cues. The task requires animals to remember a set of visual cues, so that following interference with a different set of cues, the initial set of cues can be recalled to successfully solve the RAWM task. A set of four behavioral measures was examined through six successive daily trials. Behavioral measures were A1-A3 (Composite three-trial recall score from first three trials performed in RAWM “A”), “B” (proactive interference measure attained from a single trial in RAWM “B”), A4 (retroactive interference measure attained during a single trial in RAWM “A”), and “A5” (delayed-recall measure attained from a single trial in RAWM “A” following a 20 min delay between A4 and A5). As with the standard RAWM task, this interference task involves the platform location being changed daily to a different arm for both of the RAWM setups utilized, and different start arms for each day of testing for both RAWM setups. For A1 and B trials, the animal is initially allowed 1 min to find the platform on its own before being guided to the platform. Then the actual trial is performed in each case. Also, between each trial, animals were placed into a Y-maze apparatus for 30 seconds as an inter-trial interfering experience. As with the standard RAWM task, animals were given 60 s to find the escape platform for each trial, with the number of errors and escape latency recorded for each trial.
For statistical analysis of RAWM data, the 8 days of pre-treatment testing (four 2-day blocks) or the 9 days of during-treatment testing (three 3-day blocks) were evaluated for individual blocks, as well as over all blocks, using one-way ANOVAs. Thereafter, post hoc pair-by-pair differences between groups were resolved with the Fisher LSD (least significant difference) test.

PKA [3] = conditions: cited from earlier work
[4] = Kane et al. (2006); cited from earlier work
IκBα = IκBα levels in cortex of mice, Western blot; conditions: two months treatment
PKA [5] = test: PKA kinase activity ELISA in brain extracts of treated mice; conditions: Tg mice, four months treatment
[6] = test system: embryonic rat cortical cells; test: Aβ toxicity assay, cell viability by MTT; assay type: cell-based; conditions: 5 μM Aβ + 10 μM inhibitor, 48 h; Aβ alone 73% (GW5074 experiment), 70% (ZM336372 experiment)
[7] = test system: embryonic rat cortical cells; test: Aβ toxicity assay, calcein-AM/propidium iodide staining; assay type: cell-based; conditions: 5 μM Aβ + 10 μM GW5074, 48 h
pNFκB/p65 (Ser276) = test: Aβ-dependent NFκB/p65 phosphorylation at serine 276 in cortical cells, Western blot; assay type: cell-based, rat; conditions: 10 μM GW5074 + 5 μM Aβ, 48 h, in comparison to Aβ treated cells
[8] = wild type mice (data not shown)

CNC(=O)c1cc(Oc2ccc(NC(=O)Nc3ccc(Cl)c(C(F)(F)F)c3)cc2)ccn1 [Sorafenib, 4-(4-phenoxy)-N2-methylpyridine-2 carboxamide 4-methylbenzenesulfonate]
decrease in levels of ppERK compared to control Tg mice (ppErk1/2; Tg mice, cortex, 20 mg/kg gavage, two months): 29%
ERK phosphorylation vs untreated NT mice (ppErk1/2; wild type NT mice): No changes
cRaf-1 phosphorylation vs untreated NT mice (pcRaf-1[Ser338]): No changes
levels of pNF-κB[Ser276] vs control Tg mice (pNF-κB[Ser276]): significantly lower levels
levels of pNF-κB[Ser276] vs control Tg mice (pNF-κB[Ser276]; listed as sorafenib): significantly reduced
pNF-κB[Ser276] levels vs untreated wild type mice (pNF-κB[Ser276]; [8]): No differences
levels of Cox-2 vs control Tg mice (Cox-2): lower levels
levels of Cox-2 vs control Tg mice (Cox-2; listed as sorafenib): substantially lower levels
Cox-2 levels vs untreated wild type mice (Cox-2; [8]): No differences
lower expression of iNOS than control Tg mice (iNOS; Tg mice, cortex, 20 mg/kg/day, four months): 81%
iNOS levels vs untreated wild type mice (iNOS; [8]): No differences
Aβ40 total levels (Aβ40): 36,140 ± 9.281 ns, P = 0.5193 pg/mg
Aβ42 total levels (Aβ42; Study 1 (2 mo. treatment)): 22,570 ± 5,946 ns, P = 0.4568 pg/mg
Aβ42 total levels (Aβ42; Study 2 (4 mo. treatment)): 71,980 ± 26,210 ns, P = 0.9914 pg/mg
CREB phosphorylation at Ser 133 in cortex (p-CREB[Ser 133]): significantly increased; also recorded: significantly higher
T5 errors over all blocks of RAWM testing (APPswe (Tg) and NT mice [1]; NT mice, NT vehicle 0.9±0.4): 1.1±0.2 errors
T5 errors over all blocks of RAWM testing (APPswe (Tg) and NT mice [1]; Tg mice, Tg vehicle 1.9±0.3): 1.9±0.2 errors
working memory in interference test vs vehicle-treated APPswe mice (APPswe (Tg) and NT mice [2]; APPswe mice, 2 months treatment, p<0.01): significant improvement in working memory
performance in any measure of cognitive interference testing, NT+sorafenib vs NT (APPswe (Tg) and NT mice [2]; NT mice): no differences in performance
20-min delayed recall (A5), beneficial effects (APPswe (Tg) and NT mice [2]; Tg mice, final day of testing): not evident
three-trial recall (A1-A3) (APPswe (Tg) and NT mice [2]; Tg mice, final day of testing, errors and escape latency): performed identically to NT mice; also recorded: comparable to NT controls
three-trial recall (A1-A3) (APPswe (Tg) and NT mice [2]; Tg mice, first day of interference testing, compared to NT mice): impaired
20-min delayed recall (A5) (APPswe (Tg) and NT mice [2]; Tg mice, first day of testing): significantly better and no different from NT mice; also recorded: much better delayed recall performance
proactive interference (B) (APPswe (Tg) and NT mice [2]; Tg mice, first day of testing): relatively high escape latency
proactive interference (B) (APPswe (Tg) and NT mice [2]; Tg mice, last day of testing): performed significantly better than Tg controls and identically to NT mice; also recorded: performed substantially better than Tg controls
retroactive interference (A4) (APPswe (Tg) and NT mice [2]; first and last day of testing): no effect of genotype or sorafenib treatment
IC50 (PKA [3]): > 10 µM
blood-brain barrier [4]: crosses the blood-brain barrier
higher levels of IκBα protein expression compared to control Tg mice (IκBα): 117%
PKA activity in cortex (PKA [5]): restored PKA activity in Tg mice to values similar to those observed in NT mice
PKA activity in cortex (PKA [5]; listed as sorafenib): comparable to NT mice

Cc1ccc(NC(=O)c2cccc(N(C)C)c2)cc1NC(=O)c1ccc(O)cc1 [ZM336372, N-[5-(dimethyl-aminobenzamide)-2-methylphenyl]-4-hydroxybenzamide]
cell survival, % of control levels (MTT) [6]: 86%

O=C1Nc2ccc(I)cc2/C1=C/c1cc(Br)c(O)c(Br)c1 [GW5074, 5-iodo-3-[(3,5-dibromo-4-hydroxyphenyl)methy-lene]-2-indolinone]
cell survival, % of control levels (MTT) [6]: 93%
number of PI stained cells after Aβ exposure [7]: decreased dramatically
NFκB/p65 phosphorylation at serine 276 (pNFκB/p65 (Ser276)): nine-fold decrease
